{"source": "patent US20170290814A1", "about": "“METHODS OF TREATMENT OF CHOLESTASIS AND FIBROSIS” (GENFIT, priority 2016, published 2017)", "system": "TGFβ1-induced expression of α-SMA protein in human HSC", "experiment": "α-SMA ELISA in TGFβ1-activated human hepatic stellate cells", "format": "cell-based", "settings": "TGFβ1 1 ng/ml, 48 h", "protocol": "Serum-deprived HSC were preincubated for 1 hour with RM-5061 before the activation with the profibrogenic cytokine TGFβ1 (1 ng/ml). After 48 hours of incubation, the α-SMA content was measured by ELISA. The obtained values were transformed into percentage inhibition over TGFβ1 control. Data are presented as mean (quadruplicates)±standard error of the mean (SEM). Statistical analyses were performed by one-way ANOVA followed by Bonferroni post-hoc tests, using Sigma Plot 11.0 software. [*: p<0.05; **: p<0.01; ***: p<0.001 (comparison versus TGFβ1 1 ng/mL group)]. The curve fitting and the calculation of half maximal inhibitory concentration (IC50) were performed with XLFit software 5.3.1.3.\nSerum-deprived HSC were preincubated for 1 hour with Cpd.5 before the activation with the profibrogenic cytokine TGFβ1 (1 ng/ml). After 48 hours of incubation, the expression of α-SMA was measured by ELISA. The obtained values were transformed into percentage inhibition over TGFβ1 control. Data are presented as mean (triplicates)±standard deviation (SD). Statistical analyses were performed by one-way ANOVA followed by Bonferroni post-hoc tests, using Sigma Plot 11.0 software. [*: p<0.05; **: p<0.01; ***: p<0.001 (comparison versus TGFμ1 1 ng/mL group)]. The curve fitting and the calculation of half maximal inhibitory concentration (IC50) were performed with XLFit software 5.3.1.3.\nThe human primary hepatic stellate cells (hHSC) (Innoprot) were cultured in STeCM medium (ScienCell cat #5301) that was supplemented with 2% fetal bovine serum (FBS, ScienCell cat #0010), 1% penicillin/streptomycin (ScienCell cat #0503) and stellate cell growth supplement (SteCGS; ScienCell cat #5352). Cell culture flasks were coated with Poly-L Lysine (Sigma cat #P4707) for a better adherence.\nThe human primary hepatic stellate cells (hHSC) (Innoprot) were cultured under standard conditions, as described above. The cells were subsequently plated at a density of 2×10^4cells/well or 6,5×10^3 cells/well into 96-well or 384-well plates respectively. The next day, cell-culture medium was removed, and cells were washed with PBS (Invitrogen cat #14190). Then, hHSC were deprived for 24 hours in serum-free and SteCGS-free medium. For the treatments with compounds of formula (I), the serum-deprived hHSC were preincubated for 1 hour with the compounds followed by addition of the profibrogenic stimuli TGFβ1 (PeproTech cat #100-21, 1 ng/mL) in serum-free and SteCGS-free medium for an additional 48 hour period. At the end of treatment, the cell culture supernatants of treated-HSC were transferred into a new plate before storage at −20° C.The cells were washed with PBS (Invitrogen, cat #14190) before the addition of lysis buffer (CelLytic™ MT reagent; Sigma #C3228). Plates were then incubated for 30 min on ice using a plate shaker, before storage at −20° C.\nThe level of α-SMA was measured using a Sandwich ELISA. Briefly, the wells of an ELISA plate were first coated with the capture antibody (mouse monoclonal anti-ACTA2, Abnova) at 4° C. overnight. After 3 washes in PBS +0.2% Tween 20, a blocking solution consisting of PBS +0.2% BSA was added for one hour followed by another washing cycle. The cell lysates were transferred into the wells for binding to the capture antibody for a period of 2 h at room temperature. After the washing procedure, the detection antibody (biotinylated mouse monoclonal anti-ACTA2, Abnova) was added for 2 hours at room temperature followed by 3 washes. For the detection, an HRP-conjugated Streptavidin (R&D Systems cat #DY998) was first applied for 30 min at room temperature. After washing, the HRP substrate TMB (;BD, #555214) was added and incubated for 7 min at room temperature in the dark. Upon oxidation, TMB forms a water-soluble blue reaction product that becomes yellow with addition of sulfuric acid (solution stop), enabling accurate measurement of the intensity at 450 nm using a spectrophotometer. […]", "note": "Entries after “also recorded” stand apart in the source; their conditions may differ."}
{"smiles": "[2H]C([2H])([2H])C(=O)Oc1ccccc1C(=O)Nc1ncc([N+](=O)[O-])s1", "note": "[Cpd.5, 2-[(5-nitro-1,3-thiazol-2-yl)carbamoyl]phenyl (d3)ethanoate]", "values": [{"measurement": "effect on TGFβ1-induced α-SMA level in human HSC", "result": "inhibits"}]}
{"smiles": "CC(C)(C)[C@H](N)C(=O)Oc1ccccc1C(=O)Nc1ncc([N+](=O)[O-])s1", "note": "[RM-5061, (S)-2-(5-nitrothiazol-2-ylcarbamoyl)phenyl 2-amino-3,3-dimethylbutanoate]", "values": [{"measurement": "Max % I Over TGFβ, αSMA", "result": 40, "unit": "%"}, {"measurement": "effect on TGFβ1-induced α-SMA level in human HSC", "result": "dose-dependently reduced; also recorded: inhibits"}]}
